Measured values reported in PubChem BioAssay AID1918999 (Molecular Pharmacology Branch, DTP, NCI, 2023).
Values joined by “and” are separate entries in the source; they are usually repeats but may differ in a detail not shown here. Identical values can stand only once.

System: 556581-035-R-J1-PDC complex spheroid growth
Test: Anticancer human tumor 556581-035-R-J1-PDC patient-derived ovarian carcinoma cell line growth inhibition [AhR]
Settings: for viability, T/C: stronger effect = lower value
Outline: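 Complex tumor spheroids co-cultured with HUVEC and human MSC stroma; AhR antagonists tested in combination with standard-of-care and investigational agents. Top concentration at or near clinical Cmax (else 10 microM), half-log dilutions; growth expressed as percent test/control.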

[1] = curve of first compound, second compound 0.1 µM
[2] = curve of first compound, second compound 0.316 µM
[3] = curve of first compound, second compound 1 µM
[4] = curve of first compound, second compound 3.16 µM
[5] = curve of first compound, second compound 10 µM
[6] = second compound 0.1 µM, first compound 0.0316 µM
[7] = second compound 0.1 µM, first compound 0.1 µM
[8] = second compound 0.1 µM, first compound 0.316 µM
[9] = second compound 0.1 µM, first compound 1 µM
[10] = second compound 0.1 µM, first compound 3.16 µM
[11] = second compound 0.1 µM, first compound 10 µM
[12] = second compound 0.316 µM, first compound 0.0316 µM
[13] = second compound 0.316 µM, first compound 0.1 µM
[14] = second compound 0.316 µM, first compound 0.316 µM
[15] = second compound 0.316 µM, first compound 1 µM
[16] = second compound 0.316 µM, first compound 3.16 µM
[17] = second compound 0.316 µM, first compound 10 µM
[18] = second compound 1 µM, first compound 0.0316 µM
[19] = second compound 1 µM, first compound 0.1 µM
[20] = second compound 1 µM, first compound 0.316 µM
[21] = second compound 1 µM, first compound 1 µM
[22] = second compound 1 µM, first compound 3.16 µM
[23] = second compound 1 µM, first compound 10 µM
[24] = second compound 3.16 µM, first compound 0.0316 µM
[25] = second compound 3.16 µM, first compound 0.1 µM
[26] = second compound 3.16 µM, first compound 0.316 µM
[27] = second compound 3.16 µM, first compound 1 µM
[28] = second compound 3.16 µM, first compound 3.16 µM
[29] = second compound 3.16 µM, first compound 10 µM
[30] = second compound 10 µM, first compound 0.0316 µM
[31] = second compound 10 µM, first compound 0.1 µM
[32] = second compound 10 µM, first compound 0.316 µM
[33] = second compound 10 µM, first compound 1 µM
[34] = second compound 10 µM, first compound 3.16 µM
[35] = second compound 10 µM, first compound 10 µM
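For viability, T/C in this document: compound exposure lasted 7 days; 100% = DMSO vehicle control growth.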

SMILES	IC50 [1] [µM]	IC50 [2] [µM]	IC50 [3] [µM]	IC50 [4] [µM]	IC50 [5] [µM]	viability, T/C [6] [%]	viability, T/C [7] [%]	viability, T/C [8] [%]	viability, T/C [9] [%]	viability, T/C [10] [%]	viability, T/C [11] [%]	viability, T/C [12] [%]	viability, T/C [13] [%]	viability, T/C [14] [%]	viability, T/C [15] [%]	viability, T/C [16] [%]	viability, T/C [17] [%]	viability, T/C [18] [%]	viability, T/C [19] [%]	viability, T/C [20] [%]	further results
COc1cc(Nc2ncc3c(n2)-c2ccc(Cl)cc2C(c2c(F)cccc2OC)=NC3)ccc1C(=O)O + Cc1ccccc1N=Nc1ccc(NC(=O)c2ccnn2C)c(C)c1	> 10	> 10	> 10	> 10	> 10	83.8	72.4	69.2	61.4	60.4	59.4	78	73.5	68.5	56.6	61.1	48.7	80.5	73.2	69	viability, T/C [21]: 62.8%; viability, T/C [22]: 64.7%; viability, T/C [23]: 54.9%; viability, T/C [24]: 67.2%; viability, T/C [25]: 66.2%; viability, T/C [26]: 57.6%; viability, T/C [27]: 58.1%; viability, T/C [28]: 58.6%; viability, T/C [29]: 49.2%; viability, T/C [30]: 70.2%; viability, T/C [31]: 61.9%; viability, T/C [32]: 62.1%; viability, T/C [33]: 66%; viability, T/C [34]: 57.6%; viability, T/C [35]: 56.8%
CC1COCCN1c1cc(-c2ccnn2C)c2ccnc(-c3ccn[nH]3)c2n1 (configuration not stated)	–	–	–	–	–	–	–	–	–	–	–	–	–	–	–	–	–	–	–	–	viability, T/C (compound 0.00316 µM): 97.2% and 110% and 109%; viability, T/C (compound 0.01 µM): 101% and 105% and 102%; viability, T/C (compound 0.0316 µM): 105% and 95.4% and 98.4%; viability, T/C (compound 0.1 µM): 78.3% and 80.3% and 80.1%; viability, T/C (compound 0.316 µM): 58.9% (2×) and 65.4%; viability, T/C (compound 1 µM): 45.2% and 48.2% and 48.4%; IC50 (curve of compound): 0.67 µM and 0.897 µM and 0.827 µM
NS(=O)(=O)OCC1CC(n2ccc3c(NC4CCc5ccccc54)ncnc32)CC1O (configuration not stated) + Cc1cncc(-c2nc(NCCc3c[nH]c4ccccc34)c3ncn(C(C)C)c3n2)c1	> 10	> 10	> 10	> 10	2.67	109	102	95.9	90.5	81.1	62.5	98.1	104	92.7	85.8	72.7	62.2	112	120	87.7	viability, T/C [21]: 81.6%; viability, T/C [22]: 74%; viability, T/C [23]: 63.8%; viability, T/C [24]: 99.9%; viability, T/C [25]: 119%; viability, T/C [26]: 96.4%; viability, T/C [27]: 84.8%; viability, T/C [28]: 70.5%; viability, T/C [29]: 49.5%; viability, T/C [30]: 87.8%; viability, T/C [31]: 95.5%; viability, T/C [32]: 71.9%; viability, T/C [33]: 71%; viability, T/C [34]: 45.6%; viability, T/C [35]: 27.6%
